For three compounds, MIC results are on record in patent US5684023A, “Benzofuranyl -and benzothienyloxazolidinones” (Bayer Aktiengesellschaft, priority 1994, dated 1997).

Holding throughout (assay): MIC, serial dilution (Iso-Sensitest agar / microdilution in BH medium)
What all share (assay type): cell-based
On the technique in general: Broth dilution looks for growth in wells or tubes with falling amounts of substance.

The test system of one assay is E. coli Neumann. To be noted: Escherichia coli, 37° C., about 20 hours. Here is the method:
(§1) The minimum inhibitory concentrations (MIC) were determined by serial dilution methods on Iso-Sensitest agar (Oxoid). For each test substance, a number of agar plates were prepared which contained a decreasing concentration of the active compound on double dilution in each case. The agar plates were inoculated with a multipoint inoculator (Denley). For inoculation, overnight cultures of the bacilli were used which were previously diluted such that each inoculation point contained about 10^4 colony-forming particles. The inoculated agar plates were incubated at 37° C., and the bacterial growth was read off after about 20 hours. The MIC value (μg/ml) indicates the lowest active compound concentration at which no growth could be detected using the naked eye. The MIC values were determined in BH medium with the aid of the microdilution method. Each test substance was dissolved in the nutrient medium. A concentration series of the test substances was prepared in the microtiter plates by serial dilution. For inoculation, overnight cultures of the bacilli were used which had previously been diluted 1:250 in the nutrient medium. 100 μl each of inoculation solution were added to 100 μl of the diluted, active compound-containing nutrient solutions. The microtiter plates were incubated at 37° C. and read off after about 20 hours. The MIC value (μg/ml) indicates the lowest active compound concentration at which no growth could be detected.

The subject of a further assay is Klebs. 57 USA. As to conditions: 37° C., about 20 hours. Here is the method:
as §1

In another assay the test system is Psdm. Bonn. As to conditions: 37° C., about 20 hours. Here is the method:
as §1

The subject of another assay is Staph 25701. To be noted: 37° C., about 20 hours. Here is the method: as §1
In another assay the test system is Staph 9TV. As to conditions: 37° C., about 20 hours. Here is the method:
as §1

In the next assay the test system is Staph. 48N. As to conditions: 37° C., about 20 hours. As to the method:
as §1

For the next assay, the system named is Staph. 133. As to conditions: 37° C., about 20 hours. As to the method:
as §1

SMILES strings stand for the structures. In brackets after ≈: the same amount, converted by molar mass. Bounds are passed on as bounds.

`CC(=O)NC[C@H]1CN(c2ccc3sccc3c2)C(=O)O1` [Example 9, (5S)-3-[5-Benzo[b]thiophenyl]5-acetylamino-methyl-oxazolidin-2-one]: the MIC (usually the lowest concentration that inhibits growth of the organism) is greater than 64 µg/mL in the assay on E. coli Neumann; greater than 64 µg/mL against Klebs. 57 USA; greater than 64 µg/mL in the assay with Psdm. Bonn; 2 µg/mL (≈ 6.89 µM) in the assay on Staph 25701; 2 µg/mL (≈ 6.89 µM) in the assay on Staph 9TV; 4 µg/mL (≈ 13.8 µM) against Staph. 48N. Further, the lowest concentration to inhibit growth in the assay on Staph. 133 (MIC) was 4 µg/mL (≈ 13.8 µM).
For `CC(=O)NC[C@H]1CN(c2ccc3oc(C)cc3c2)C(=O)O1` [Example 16], the minimal inhibitory concentration (MIC) is greater than 64 µg/mL against E. coli Neumann; greater than 64 µg/mL in the assay with Klebs. 57 USA; greater than 64 µg/mL with Psdm. Bonn; 1 µg/mL (≈ 3.47 µM) with Staph 25701; 0.5 µg/mL (≈ 1.73 µM) against Staph 9TV; 1 µg/mL (≈ 3.47 µM) with Staph. 48N. The same compound had a minimum inhibitory concentration (MIC) in the assay with Staph. 133 of 1 µg/mL (≈ 3.47 µM).
For the compound `CC(=O)NC[C@H]1CN(c2ccc3c(c2)C=CS3(=O)=O)C(=O)O1` [Example 27], the MIC against E. coli Neumann is greater than 64 µg/mL; against Klebs. 57 USA, greater than 64 µg/mL; against Psdm. Bonn it was greater than 64 µg/mL; against Staph 25701 it was 16 µg/mL (≈ 49.6 µM); against Staph 9TV, 8 µg/mL (≈ 24.8 µM); against Staph. 48N it was 16 µg/mL (≈ 49.6 µM). This compound also displayed a minimum inhibitory concentration (MIC) in the assay with Staph. 133 of 16 µg/mL (≈ 49.6 µM).
